What was measured:
[1] = molecular target: T1, cytoplasmic domain of the human CSF-1R (Homo sapiens, UniProt P07333); assay: In vitro kinase assay for CSF-1R (AlphaScreen); assay type: biochemical; conditions: tested at about 1 μM
T1 construct: Recombinant protein corresponding to the cytoplasmic domain of the human CSF-1R; purchased Invitrogen Corporation, Carlsbad, Calif; U.S.A. PV3249
T1 sequence (P07333 539-972 limits assumed): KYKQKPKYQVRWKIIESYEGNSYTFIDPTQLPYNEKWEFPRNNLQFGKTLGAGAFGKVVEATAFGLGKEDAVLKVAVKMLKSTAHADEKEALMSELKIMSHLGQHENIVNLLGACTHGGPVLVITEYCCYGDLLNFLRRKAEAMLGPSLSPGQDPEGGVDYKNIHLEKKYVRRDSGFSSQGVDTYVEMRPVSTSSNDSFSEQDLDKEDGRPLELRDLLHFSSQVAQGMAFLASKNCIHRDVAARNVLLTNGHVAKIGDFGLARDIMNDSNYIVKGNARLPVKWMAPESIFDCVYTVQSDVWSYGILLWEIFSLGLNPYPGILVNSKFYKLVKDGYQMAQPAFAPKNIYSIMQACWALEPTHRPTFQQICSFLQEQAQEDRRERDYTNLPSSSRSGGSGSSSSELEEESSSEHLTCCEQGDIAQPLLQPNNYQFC
Experimental: The kinase activity of various protein tyrosine kinases can be measured by providing ATP and a suitable peptide or protein tyrosine-containing substrate, and assaying the transfer of phosphate moiety to the tyrosine residue. Recombinant protein corresponding to the cytoplasmic domain of the human CSF-1R was purchased from Invitrogen Corporation, Carlsbad, Calif. U.S.A. (#PV3249). For each assay, test compounds were serially diluted, starting at 25 μM with 3 fold dilutions, in DMSO in 384 well plates then mixed with an appropriate kinase reaction buffer consisting of 50 mM Hepes, 5 mM MgCl2, 10 mM MnCl2, 0.1% BSA, pH 7.5, 1.0 mM dithiothreitol, 0.01% Tween 80 plus […]. Kinase protein and an appropriate biotinylated peptide substrate at 50 nM were added to give a final volume of 20 μL, reactions were incubated for 2 hours at room temperature and stopped by the addition of 10 μL of 45 mM EDTA, 50 mM Hepes pH 7.5. Added to the stopped reaction mix was 30 μL of PT66 Alphascreen beads (Perkin Elmer, Boston, Mass., U.S.A.). The reaction was incubated overnight and read on the Envision (Perkin Elmer). Phosphorylated peptide product was measured with the AlphaScreen system (Perkin Elmer) using acceptor beads coated with anti-phosphotyrosine antibody PT66 and donor beads coated with streptavidin that emit a fluorescent signal at the 520-620 nm emission wave length if in close proximity. The concentration of each compound for 50% inhibition (IC50) was calculated by non-linear regression using XL Fit data analysis software.
CSF-1R kinase was assayed in 50 mM Hepes pH 7.0, 5 mM MgCl2, 10 mM MnCl2, 1 mM DTT, 1 mg/mL BSA, 1.0 μM ATP, and 0.05 μM biotin-GGGGRPRAATF-NH2 (SEQ ID NO:2) peptide substrate. CSF-1R kinase was added at final concentration of 4 nM.

cKIT = molecular target: T2, cKIT (Homo sapiens, UniProt P10721); assay: Inhibition of cKIT kinase in an in vitro biochemical assay (alphascreen); conditions: tested at about 1 μM
T2 construct: The kinase domain of cKIT was assayed in 50 mM Hepes; purchased Upstate 14-559
T2 sequence (P10721 589-937 limits assumed): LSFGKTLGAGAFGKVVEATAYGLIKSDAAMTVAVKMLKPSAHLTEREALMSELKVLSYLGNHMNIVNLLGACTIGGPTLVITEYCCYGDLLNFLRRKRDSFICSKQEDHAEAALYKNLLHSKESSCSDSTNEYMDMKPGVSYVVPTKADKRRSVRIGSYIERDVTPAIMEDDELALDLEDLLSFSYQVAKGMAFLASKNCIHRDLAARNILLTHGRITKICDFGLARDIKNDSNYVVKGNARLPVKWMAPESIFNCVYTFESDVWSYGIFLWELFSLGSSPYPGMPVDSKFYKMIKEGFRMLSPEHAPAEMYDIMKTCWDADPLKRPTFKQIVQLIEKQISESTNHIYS
Experimental: (§1) The IC50 values for the inhibition of RTKs were determined in the alphascreen format measuring the inhibition by compound of phosphate transfer to a substrate by the respective enzyme. Briefly, the respective RTK domain purchased as human recombinant protein (cKIT Upstate #14-559, PDGFRb Invitrogen #P3082) were incubated with serial dilutions of compound in the presence of substrate and ATP concentrations within 3 times the Km of the enzyme.
(§2) The kinase domain of cKIT was assayed in 50 mM Hepes, pH=7.5, 5 mM MgCl2, 10 mM MnCl2, 1 mM DTT, 0.1% BSA with 0.06 uM biotinylated peptide substrate (GGLFDDPSYVNVQNL-NH2) and 15 μM ATP (ATP KM apparent =15 μM). The kinase domain of PDGFRβ was assayed in 50 mM Hepes, pH=7.5, 20 mM MgCl2, 1 mM DTT, 0.1% BSA with 0.1 μM biotinylated peptide substrate (GGLFDDPSYVNVQNL-NH2) and 10 μM ATP (ATP KM apparent=25 μM). Reactions were incubated at room temperature for 3 to 4 hr and stopped with buffer (20 mM EDTA, 0.01% Tween-20 for both PDGFRβ and cKIT). Alphascreen PY20 beads were added to the stopped cKIT reactions and PY20 Ab/Protein A Alphascreen beads were added to the PDGFRβ stopped reactions. Both reactions were incubated overnight and read on the Alphascreen reader. The concentration of compound for 50% inhibition (IC50) was calculated employing non-linear regression using XL-Fit data analysis software. As a control compound, staurosporine is run in every assay and a Z′>0.5 is required to validate results.

PDGFRb = molecular target: T3, PDGFRb (Homo sapiens, UniProt P09619); assay: Inhibition of PDGFRb kinase in an in vitro biochemical assay (alphascreen); conditions: tested at about 1 μM; read-out: PDGFR % inhibition at 1 μM
T3 construct: The kinase domain of PDGFRβ was assayed in 50 mM Hepes; purchased Invitrogen P3082
T3 sequence (P09619 600-962 limits assumed): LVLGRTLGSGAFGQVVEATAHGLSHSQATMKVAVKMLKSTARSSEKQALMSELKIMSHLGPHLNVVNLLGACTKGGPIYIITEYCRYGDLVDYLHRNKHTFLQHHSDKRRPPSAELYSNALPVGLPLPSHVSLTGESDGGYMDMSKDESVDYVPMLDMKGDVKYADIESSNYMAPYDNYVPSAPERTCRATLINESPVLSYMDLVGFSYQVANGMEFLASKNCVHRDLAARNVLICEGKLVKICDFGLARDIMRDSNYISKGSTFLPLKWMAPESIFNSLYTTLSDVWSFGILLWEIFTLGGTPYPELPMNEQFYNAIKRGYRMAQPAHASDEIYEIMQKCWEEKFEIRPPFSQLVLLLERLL
Experimental: as §1, §2

Row | SMILES | inhibition at 1 µM [1] | inhibition at 1 µM (cKIT) | inhibition at 1 µM (PDGFRb)
1 | CNC(=O)c1cc(Oc2ccc3nc(NCc4ccccc4N4CCOCC4)ncc3c2)ccn1 [Example 41, N-methyl-4-(2-(2-morpholinobenzylamino)quinazolin-6-yloxy)picolinamide] | 100% | 6% | 92%
2 | CNC(=O)c1cc(Oc2ccc3nc(NCc4cccc5c4OCCO5)ncc3c2)ccn1 [Example 42, 4-(2-((2,3-dihydrobenzo[b][1,4]dioxin-5-yl)methylamino)quinazolin-6-yloxy)-N-methylpicolinamide] | 100% | 99% | 66%
3 | CNC(=O)c1cc(Oc2ccc3nc(NCc4ccc5c(c4)OCCO5)ncc3c2)ccn1 [Example 43, 4-(2-((2,3-dihydrobenzo[b][1,4]dioxin-6-yl)methylamino)quinazolin-6-yloxy)-N-methylpicolinamide] | 98% | 24% | < 1%
4 | CNC(=O)c1cc(Oc2ccc3nc(NCC4CC4)ncc3c2)ccn1 [Example 53, 4-(2-(cyclopropylmethylamino)quinazolin-6-yloxy)-N-methylpicolinamide] | 83% | < 1% | 9%
5 | CNC(=O)c1cc(Oc2ccc3nc(OCC4CCCCC4)ncc3c2)ccn1 [Example 55, 4-(2-(cyclohexylmethoxy)quinazolin-6-yloxy)-N-methylpicolinamide] | 99% | 42% | 6%
6 | CCOC(=O)N1CCC(Nc2ncc3cc(Oc4ccnc(C(=O)NC)c4)ccc3n2)CC1 [Example 56, ethyl 4-(6-(2-(methylcarbamoyl)pyridin-4-yloxy)quinazolin-2-ylamino)piperidine-1-carboxylate] | 84% | 17% | < 1%
7 | CNC(=O)c1cc(Oc2ccc3nc(NC4CCN(C(=O)OC(C)(C)C)CC4)ncc3c2)ccn1 [Example 57, tert-butyl 4-(6-(2-(methylcarbamoyl)pyridin-4-yloxy)quinazolin-2-ylamino)piperidine-1-carboxylate] | 93% | 12% | 2%
8 | CNC(=O)c1cc(Oc2ccc3nc(NC4CCOCC4)ncc3c2)ccn1 [Example 58, N-methyl-4-(2-(tetrahydro-2H-pyran-4-ylamino)quinazolin-6-yloxy)picolinamide] | 65% | 8% | < 1%
9 | CNC(=O)c1cc(Oc2ccc3nc(NC(=O)C4CCCCC4)ncc3c2)ccn1 [Example 59, 4-(2-(cyclohexanecarboxamido)quinazolin-6-yloxy)-N-methylpicolinamide] | 99% | 13% | 13%
10 | CNC(=O)c1cc(Oc2ccc3nc(NC(=O)NC4CCCCC4)ncc3c2)ccn1 [Example 60, 4-(2-(3-cyclohexylureido)quinazolin-6-yloxy)-N-methylpicolinamide] | 97% | 17% | 12%
11 | CNC(=O)c1cc(Oc2ccc3nc(NCC(C)(C)N4CCOCC4)ncc3c2)ccn1 [Example 61, N-methyl-4-(2-(2-methyl-2-morpholinopropylamino)quinazolin-6-yloxy)picolinamide] | 93% | 12% | < 1%
12 | CNC(=O)c1cc(Oc2ccc3nc(NC4CCCC4)ncc3c2)ccn1 [Example 66, 4-(2-(cyclopentylamino)quinazolin-6-yloxy)-N-methylpicolinamide] | 96% | 13% | < 1%

Continued, values first:

Row | inhibition at 1 µM [1] | inhibition at 1 µM (cKIT) | inhibition at 1 µM (PDGFRb) | SMILES
13 | 100% | 13% | < 1% | CNC(=O)c1cc(Oc2ccc3nc(Nc4cccc5c4OCCO5)ncc3c2)ccn1 [Example 40, 4-(2-(2,3-dihydrobenzo[b][1,4]dioxin-5-ylamino)quinazolin-6-yloxy)-N-methylpicolinamide]
14 | 99% | 44% | 3% | CNC(=O)c1cc(Oc2ccc3nc(Nc4ccccc4OC)ncc3c2)ccn1 [Example 44, 4-(2-(2-methoxyphenylamino)quinazolin-6-yloxy)-N-methylpicolinamide]
15 | 99% | 38% | 12% | CCOc1ccccc1Nc1ncc2cc(Oc3ccnc(C(=O)NC)c3)ccc2n1 [Example 45, 4-(2-(2-ethoxyphenylamino)quinazolin-6-yloxy)-N-methylpicolinamide]
16 | 100% | 27% | 17% | CNC(=O)c1cc(Oc2ccc3nc(Nc4ccccc4OC(C)C)ncc3c2)ccn1 [Example 46, 4-(2-(2-isopropoxyphenylamino)quinazolin-6-yloxy)-N-methylpicolinamide]
17 | 98% | 18% | 15% | CNC(=O)c1cc(Oc2ccc3nc(NC(C)c4nccs4)ncc3c2)ccn1 (stereo not drawn) [Example 48, N-methyl-4-(2-(1-(thiazol-2-yl)ethylamino)quinazolin-6-yloxy)picolinamide]
18 | 52% | 7% | 9% | CCCNc1ncc2cc(Oc3ccnc(C(=O)NC)c3)ccc2n1 [Example 52, N-methyl-4-(2-(propylamino)quinazolin-6-yloxy)picolinamide]
19 | 65% | 47% | 20% | CNC(=O)c1cc(Oc2ccc3nc(Nc4ccccc4N4CCN(C)CC4)ncc3c2)ccn1 [Example 54, N-methyl-4-(2-(2-(4-methylpiperazin-1-yl)phenylamino)quinazolin-6-yloxy)picolinamide]
20 | 99% | 16% | 7% | CNC(=O)c1cc(Oc2ccc3nc(N[C@@H](C)c4ccccc4)ncc3c2)ccn1 [Example 64, (S)-N-methyl-4-(2-(1-phenylethylamino)quinazolin-6-yloxy)picolinamide]
21 | 96% | 13% | < 1% | CNC(=O)c1cc(Oc2ccc3nc(Nc4ccccc4CN4CCOCC4)ncc3c2)ccn1 [Example 67, N-methyl-4-(2-(2-(morpholinomethyl)phenylamino)quinazolin-6-yloxy)picolinamide]
22 | 98% | 10% | 2% | CNC(=O)c1cc(Oc2ccc3nc(Nc4cccc5c4OC(F)(F)O5)ncc3c2)ccn1 [Example 68, 4-(2-(2,2-difluorobenzo[d][1,3]dioxol-4-ylamino)quinazolin-6-yloxy)-N-methylpicolinamide]
